Drawing on patent US20240182445A1 (ONO PHARMACEUTICAL CO., LTD., priority 2019, published 2024), this text covers IC50 and inhibition for 28 compounds.

The structures appear in SMILES notation.

For orientation: IC50 means the concentration that inhibits the measured activity by half. Read a low IC50 as higher potency. For orientation: inhibition means the change of the read-out against control, counted positive when it falls.

The first assay has as its target T1, human TREK-1 (Homo sapiens, UniProt O95069).
T1 construct: expressed in transfected cells
T1 sequence (O95069 1-426): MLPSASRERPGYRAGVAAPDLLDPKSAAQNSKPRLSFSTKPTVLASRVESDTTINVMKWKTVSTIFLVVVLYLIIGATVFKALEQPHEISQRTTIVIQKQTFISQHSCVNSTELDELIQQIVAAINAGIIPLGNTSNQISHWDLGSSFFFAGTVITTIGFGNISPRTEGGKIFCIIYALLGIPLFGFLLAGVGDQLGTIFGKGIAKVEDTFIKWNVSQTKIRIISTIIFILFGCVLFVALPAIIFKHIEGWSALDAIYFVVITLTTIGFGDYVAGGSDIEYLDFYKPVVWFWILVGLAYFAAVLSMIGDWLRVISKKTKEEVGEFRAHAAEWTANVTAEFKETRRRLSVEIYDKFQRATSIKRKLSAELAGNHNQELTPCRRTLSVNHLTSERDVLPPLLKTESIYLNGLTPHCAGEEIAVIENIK
As to the kind of experiment: TREK-1 Thallium (Tl+) flux assay, Method 1. The class given is cell-based. The note with it: TREK-1 Thallium (Tl+) flux assay, Method 1. In short, it runs like this:
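CHO-K1 cells stably expressing human TREK-1, loaded with Thallos dye, received compound or 0.3% DMSO vehicle for 10 min before thallium stimulus buffer. ΔRatio is fluorescence at 25 s after thallium addition over mean pre-addition fluorescence; % inhibition calculated from it.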
Take `Cc1cc(OCc2ccccc2)ccc1NC(=O)c1c(Cl)cnn1CC1CN(C(=O)C(C)C)CCO1` (stereo not shown) [Compound 420, N-(4-(benzyloxy)-2-methylphenyl)-4-chloro-1-((4-isobutyrylmorpholin-2-yl)methyl)-1H-pyrazole-5-carboxamide]: it took 4.38 µM to reach half-maximal inhibition (IC50).

On to `Cc1cc(OCc2ccccc2)ccc1NC(=O)c1c(Cl)cnn1C1CCN(C(=O)C2CCC2)CC1` [Compound 402, N-(4-(benzyloxy)-2-methylphenyl)-4-chloro-1-(1-(cyclobutanecarbonyl)piperidin-4-yl)-1H-pyrazole-5-carboxamide], for which inhibition was half-maximal at 2.16 µM (IC50).

The assay is the same for the next values; noted with them: TREK-1 Thallium (Tl+) flux assay; no *^12 (Method 2) mark on these rows.
`Cc1cc(C#Cc2ccccc2)cnc1NC(=O)c1c(Cl)cnn1C[C@H]1COCCO1` [Compound 211, (S)-1-((1,4-dioxan-2-yl)methyl)-4-chloro-N-(3-methyl-5-(phenylethynyl)pyridin-2-yl)-1H-pyrazole-5-carboxamide]: the 50% inhibitory concentration (IC50) came to 0.32 µM.

In the case of `Cc1cc(C#Cc2ccc(F)cc2)cnc1NC(=O)c1c(Cl)cnn1C[C@@H]1CCCN(C(=O)OC(C)(C)C)C1` [Compound 344, tert-butyl (R)-3-((4-chloro-5-((5-((4-fluorophenyl)ethynyl)-3-methylpyridin-2-yl)carbamoyl)-1H-pyrazol-1-yl)methyl)piperidine-1-carboxylate], half-maximal inhibition (IC50) was put at 0.76 µM.

For `CC(=O)N1CCC(n2ncc(Cl)c2C(=O)Nc2ccc(OCc3ccccc3)cc2C)CC1` [Compound 388, 1-(1-acetylpiperidin-4-yl)-N-(4-(benzyloxy)-2-methylphenyl)-4-chloro-1H-pyrazole-5-carboxamide], the 50% inhibitory concentration (IC50) turned out to be 1.05 µM.

With `Cc1cc(C#Cc2ccccc2)cnc1NC(=O)c1c(Cl)cnn1CC1CCCOC1` (stereo not shown) [Compound 280, 4-chloro-N-(3-methyl-5-(phenylethynyl)pyridin-2-yl)-1-((tetrahydro-2H-pyran-3-yl)methyl)-1H-pyrazole-5-carboxamide], 0.49 µM corresponded to half-maximal inhibition (IC50).

Regarding `Cc1cc(C#Cc2ccccc2)cnc1NC(=O)c1c(Cl)cnn1C1CCC(C#N)C1` (stereo not shown) [Compound 289, 4-chloro-1-(3-cyanocyclopentyl)-N-(3-methyl-5-(phenylethynyl)pyridin-2-yl)-1H-pyrazole-5-carboxamide], the IC50 came out at 0.51 µM.

As for `Cc1cc(C#Cc2ccc(F)cc2)cnc1NC(=O)c1c(Cl)cnn1CC1CCN(C(=O)C(C)C)CC1(F)F` (stereo not shown) [Compound 350, 4-chloro-1-((3,3-difluoro-1-isobutyrylpiperidin-4-yl)methyl)-N-(5-((4-fluorophenyl)ethynyl)-3-methylpyridin-2-yl)-1H-pyrazole-5-carboxamide], the 50% inhibitory concentration (IC50) turned out to be 0.82 µM.

`Cc1cc(C#Cc2ccccc2)cnc1NC(=O)c1c(Cl)cnn1C(C)CNC(=O)OC(C)(C)C` (stereo not shown) [Compound 239, tert-butyl (2-(4-chloro-5-((3-methyl-5-(phenylethynyl)pyridin-2-yl)carbamoyl)-1H-pyrazol-1-yl)propyl)carbamate] yielded a half-inhibitory concentration (IC50) of 0.37 µM.

For the compound `Cc1cc(C#Cc2cccs2)cnc1NC(=O)c1c(Cl)cnn1C[C@H]1COCCO1` [Compound 343, (S)-1-((1,4-dioxan-2-yl)methyl)-4-chloro-N-(3-methyl-5-(thiophen-2-ylethynyl)pyridin-2-yl)-1H-pyrazole-5-carboxamide], 0.76 µM corresponded to half-maximal inhibition (IC50).

`Cc1cc(-c2cnn(-c3ccc(F)cc3)c2)cnc1NC(=O)c1c(Cl)cnn1C[C@H]1CCOC1` [Compound 387, (R)-4-chloro-N-(5-(1-(4-fluorophenyl)-1H-pyrazol-4-yl)-3-methylpyridin-2-yl)-1-((tetrahydrofuran-3-yl)methyl)-1H-pyrazole-5-carboxamide] came in with an IC50 of 0.9 µM.

As for `O=C(Nc1ncc(C#Cc2ccc(F)cc2)cc1F)c1c(Cl)cnn1CC1CCOCC1` [Compound 233, 4-chloro-N-(3-fluoro-5-((4-fluorophenyl)ethynyl)pyridin-2-yl)-1-((tetrahydro-2H-pyran-4-yl)methyl)-1H-pyrazole-5-carboxamide], the 50% inhibitory concentration (IC50) amounted to 0.36 µM.

The compound `Cc1cc(C#Cc2ccc(F)cc2)cnc1NC(=O)c1c(Cl)cnn1C1CCN(C(=O)C2CC2)C1` (stereo not shown) [Compound 229, 4-chloro-1-(1-(cyclopropanecarbonyl)pyrrolidin-3-yl)-N-(5-((4-fluorophenyl)ethynyl)-3-methylpyridin-2-yl)-1H-pyrazole-5-carboxamide] registered an IC50 of 0.35 µM.

In the case of `Cc1cc(C#Cc2ccc(F)cc2)cnc1NC(=O)c1c(Cl)cnn1C1CCN(C(=O)C(C)C)C1` (stereo not shown) [Compound 305, 4-chloro-N-(5-((4-fluorophenyl)ethynyl)-3-methylpyridin-2-yl)-1-(1-isobutyrylpyrrolidin-3-yl)-1H-pyrazole-5-carboxamide], 0.57 µM corresponded to half-maximal inhibition (IC50).

In the case of `Cc1cc(C#Cc2ccccc2)cnc1NC(=O)c1c(Cl)cnn1CC1(C)CCN(C(=O)C2CC2)CC1` [Compound 295], the IC50 turned out to be 0.53 µM.

Consider `CC(=O)N1CCC[C@H](Cn2ncc(Cl)c2C(=O)Nc2ncc(C#Cc3ccccc3)cc2F)C1` [Compound 262, (S)-1-((1-acetylpiperidin-3-yl)methyl)-4-chloro-N-(3-fluoro-5-(phenylethynyl)pyridin-2-yl)-1H-pyrazole-5-carboxamide], for which half-maximal inhibition (IC50) required 0.43 µM.

Consider `CC(=O)N1C[C@H]2C[C@H](n3ncc(Cl)c3C(=O)Nc3ncc(C#Cc4cccc(F)c4)cc3C)C[C@H]2C1` [Compound 195, 1-[(3aR,5s,6aS)-2-acetyloctahydrocyclopenta[c]pyrrol-5-yl]-4-chloro-N-{5-[(3-fluorophenyl)ethynyl]-3-methylpyridin-2-yl}-1H-pyrazole-5-carboxamide], for which the 50% inhibitory concentration (IC50) amounted to 0.3 µM.

For the compound `CC(C)(C)OC(=O)N1CCC2(CC1)CC(n1ncc(Cl)c1C(=O)Nc1ncc(C#Cc3ccccc3)cc1F)C2` [Compound 346, tert-butyl 2-(4-chloro-5-((3-fluoro-5-(phenylethynyl)pyridin-2-yl)carbamoyl)-1H-pyrazol-1-yl)-7-azaspiro[3.5]nonane-7-carboxylate], the concentration for half-maximal inhibition (IC50) came to 0.77 µM.

In turn, `CC(C)(C)OC(=O)N[C@H]1C[C@@H](n2ncc(Cl)c2C(=O)Nc2ncc(C#Cc3ccccc3)cc2F)C1` [Compound 325, tert-butyl (cis-3-(4-chloro-5-((3-fluoro-5-(phenylethynyl)pyridin-2-yl)carbamoyl)-1H-pyrazol-1-yl)cyclobutyl)carbamate] returned a half-maximal inhibitory concentration (IC50) of 0.64 µM.

In turn, `CC(=O)N1CCC(CCn2ncc(Cl)c2C(=O)Nc2ncc(C#Cc3ccccc3F)cc2C)CC1` [Compound 196, 1-(2-(1-acetylpiperidin-4-yl)ethyl)-4-chloro-N-(5-((2-fluorophenyl)ethynyl)-3-methylpyridin-2-yl)-1H-pyrazole-5-carboxamide] registered an IC50 of 0.3 µM.

`Cc1cc(C#Cc2ccc(F)cc2)cnc1NC(=O)c1c(Cl)cnn1C[C@H]1CCCN(C(=O)OC(C)(C)C)C1` [Compound 368, tert-butyl (S)-3-((4-chloro-5-((5-((4-fluorophenyl)ethynyl)-3-methylpyridin-2-yl)carbamoyl)-1H-pyrazol-1-yl)methyl)piperidine-1-carboxylate] gave an IC50 of 0.94 µM.

Staying with this assay, now noted: TREK-1 Thallium (Tl+) flux assay; values without footnote *12 are Method 1.
Turning to `CC(=O)N1CCC(C(C)n2ncc(Cl)c2C(=O)Nc2ncc(C#Cc3ccccc3)cc2F)CC1` (stereo not shown) [Compound 35, 1-(1-(1-acetylpiperidin-4-yl)ethyl)-4-chloro-N-(3-fluoro-5-(phenylethynyl)pyridin-2-yl)-1H-pyrazole-5-carboxamide], the 50% inhibitory concentration (IC50) was 0.11 µM.

The compound `Cc1cc(C#Cc2cccc(F)c2)cnc1NC(=O)c1c(Cl)cnn1C1CCN(C(=O)C(C)C)CC1` [Compound 152, 4-chloro-N-(5-((3-fluorophenyl)ethynyl)-3-methylpyridin-2-yl)-1-(1-isobutyrylpiperidin-4-yl)-1H-pyrazole-5-carboxamide] had an IC50 of 0.24 µM.

`CC(=O)N1CC(n2ncc(Cl)c2C(=O)Nc2ncc(C#Cc3ccccc3)cc2F)C1` [Compound 40, 1-(1-acetylazetidin-3-yl)-4-chloro-N-(3-fluoro-5-(phenylethynyl)pyridin-2-yl)-1H-pyrazole-5-carboxamide] gave an IC50 of 0.13 µM.

Turning to `CCNC(=O)N1CCC(n2ncc(Cl)c2C(=O)Nc2ncc(C#Cc3ccccc3)cc2C)CC1` [Compound 90, 4-(4-chloro-5-((3-methyl-5-(phenylethynyl)pyridin-2-yl)carbamoyl)-1H-pyrazol-1-yl)-N-ethylpiperidine-1-carboxamide], the IC50 amounted to 0.18 µM.

`CC(=O)N[C@H]1CC[C@H](n2ncc(Cl)c2C(=O)Nc2ncc(C#Cc3ccccc3)cc2C)CC1` [Compound 47, 1-(trans-4-acetamidocyclohexyl)-4-chloro-N-(3-methyl-5-(phenylethynyl)pyridin-2-yl)-1H-pyrazole-5-carboxamide] had an IC50 of 0.13 µM.

The compound `CC(C)C(=O)N[C@H]1CC[C@@H](n2ncc(Cl)c2C(=O)Nc2ncc(C#Cc3ccc(F)cc3)cc2F)CC1` [Compound 45, 4-chloro-N-(3-fluoro-5-((4-fluorophenyl)ethynyl)pyridin-2-yl)-1-(cis-4-isobutyramidocyclohexyl)-1H-pyrazole-5-carboxamide] registered an IC50 of 0.13 µM.

Still in this assay, the particulars now being: read-out: Tl^+ Assay % inhibition at 30 uM (Minus value indicates activation of TREK-1); at 30 uM; CHO-K1 cells stably expressing human TREK-1; minus = activation.
For the compound `CC(=O)N1CCC(CCn2cc(Cl)c(C(=O)Nc3ncc(C#Cc4cccc(F)c4)cc3C)n2)CC1` [Compound 439, 1-(2-(1-acetylpiperidin-4-yl)ethyl)-4-chloro-N-(5-((3-fluorophenyl)ethynyl)-3-methylpyridin-2-yl)-1H-pyrazol-3-carboxamide], the inhibition at 30 µM was -163%.
